# US7345043B2, “Inhibitors of histone deacetylase” (Miikana Therapeutics, priority 2004, dated 2008)
# How the values were obtained:
# MCF7 cells = test: Whole cell cytotoxicity assay: Sulforhodamine B; type: cell-based; conditions: Homo sapiens, 48 hours with drug, Sulforhodamine B staining
# Protocol: Whole Cell Cytotoxicity Assay:Sulforhodamine B
# The following procedure can be found on the Developmental Therapeutics Program NCI/NIH web site at http://dtp.nci.nih.gov/brancehes/btb/ivclsp.html.
# 1. Human tumor cell lines of HT29, A549 and MCF7 are grown in DMEM containing 10% fetal bovine serum and 2 mM L-glutamine. Cells are plated in a 96 well plate at a density of 5000 cells per well in 100 μL of growth medium and incubated at 37° C., 5% CO2, for 24 hours prior to the addition of experimental compounds.
# 2. Experimental drugs are solubilized in DMSO for a final concentration of 20 mM immediately prior to use. Drugs are further diluted in growth media for a total of nine drug concentrations and a growth control. At the 24-hour time point, one plate of cells is fixed in situ with TCA as a measurement of the cell population at time zero, or the time of drug addition.
# 3. The plates are further incubated with drug for an additional 48 hours.
# 4. The cells are fixed in situ by gently aspirating off the culture media and then adding 50 μL of ice cold 10% TCA per well and incubated at 4° C. for 60 minutes. The plates are washed with tap water five times and allowed to air dry for 5 minute.
# 5. 50 μl of a 0.4% (w/v) Sulforhodamine B solution in 1% (v/v) acetic acid is added per well and incubated for 30 minutes at room temperature.
# 6. Following staining, plates are washed five times with 1% acetic acid to remove any unbound dye and then allowed to air dry for 5 minutes.
# 7. Stain is solubilized with 100 μL of 10 mM Tris pH 10.5 per well and placed on an orbital rotator for 5 minutes.
# 8. Absorbance is read at 570 nm.
# [1] = tested on: HDAC (HeLa cell nuclear extract, a mosaic of HDAC enzymes); test: In vitro fluorescent histone deacetylase (HDAC) activity assay; type: biochemical; conditions: HeLa cell nuclear extract as HDAC source, 50 μM substrate, 10 min at room temperature (in some assays recombinant HDAC8); read-out: IC50 HDAC Inhibition
# Protocol: Histone deacetylase (HDAC) activity assays were performed using the HDAC fluorescent activity assay/drug discovery kit (Biomol Research Laboratories, Plymouth Meeting, Pa.) essentially according to the manufacturer's instructions. The included HeLa cell nuclear extract, which contains a mosaic of HDAC enzymes and other nuclear factors, was used as the source of HDAC activity. The final substrate concentration in the assay mixture was 50 μM. The reaction was allowed to proceed for 10 min at room temperature before stopping the reaction. Test compounds were prepared as 20 mM stock solutions in DMSO (Molecular Biology grade, Sigma-Aldrich Co., St. Louis, Mo.) and stored at −70° C. Serial dilutions of test compounds were prepared in assay buffer immediately prior to testing. DMSO was determined in a separate trial to have no significant effect on the activity of this assay at concentrations up to 5%; the final DMSO concentration in the wells was no more than 2% and therefore DMSO effects were safely neglected. Assays were performed in white polystyrene 96-well half-area assay plates (Corning, Corning, N.Y.) and measured on a Wallace 1420 fluorescent plate reader (Wallac Oy, Turku, Finland) with an excitation wavelength of 355 nm, an emission wavelength of 460 nm, and a 1 sec signal averaging time.
# In some assays recombinant HDAC8 (Biomol) was used as the source of the enzyme activity; here the final substrate concentration was 250 μM, the final concentration of HDAC8 was 0.02 u/μL and the reaction was allowed to proceed at 37° C. for 1 h before stopping. For all curves, IC50 values were calculated with the GraFit curve-fitting program (Erithacus, Horley, Surrey, UK).
SMILES,IC50 [1] [µM],GI50 (MCF7 cells) [µM]
Cc1ccc(S(=O)(=O)NC2CCN(c3ncc(C(=O)NO)s3)CC2)cc1 [Example 5d],–,15
"O=C(CN1CCN(c2ncc(C(=O)NO)s2)CC1)c1ccccc1 [Example 20B, 2-(4-(2-oxo-2-phenylethyl)-piperazin-1-yl)-1,3-thiazole-5-carboxylic acid hydroxyamide]",–,4
O=C(NO)c1cnc(N2CCC(NS(=O)(=O)c3ccc4ccccc4c3)CC2)s1 [Example 5],0.05,6
"O=C(NO)c1cnc(NC2CCN(S(=O)(=O)c3ccc4ccccc4c3)CC2)s1 [Example 5f, 2-{[1-(2-naphthylsulfonyl)piperidin-4-yl]amino}-1,3-thiazole-5-carboxylic acid hydroxyamide]",–,20
"O=C(NO)c1cnc(N2CCN(C(=O)Cc3ccccc3)CC2)s1 [Example 23, 2-(4-phenylacetyl-piperazin-1-yl)-thiazole-5-carboxylic acid hydroxamide]",31.6,20
"O=C(NO)c1cnc(N2CCC(CNS(=O)(=O)c3ccc(-c4ccccc4)cc3)CC2)s1 [Example 5e, 2-(4-{[(1,1′-biphenylsulfonyl)amino]methyl}piperidin-1-yl)-1,3-thiazole-5-carboxylic acid hydroxyamide]",–,2
"O=C(NO)c1cnc(N2CCN(Cc3ccccc3)CC2)s1 [Example 17, 2-(4-Benzyl-piperazin-1-yl)-thiazole-5-carboxylic acid hydroxyamide]",–,4
"O=C(NO)c1cnc(N2CCN(CCc3ccccc3)CC2)s1 [Example 20, 2-(4-phenylethyl-piperazin-1-yl)-thiazole-5-carboxylic acid hydroxyamide]",118,–
"O=C(NO)c1cnc(C2CCN(S(=O)(=O)c3ccc(-c4ccccc4)cc3)CC2)s1 [Example 25, 2-[1-(1,1′-biphenyl-4-ylsulfonyl)piperidin-4-yl]-1,3-thiazole-5-carboxylic acid hydroxyamide]",13.1,100
O=C(NO)c1cnc(N2CCC(NS(=O)(=O)c3ccc(-c4ccccc4)cc3)CC2)s1 [Example 5b],–,10
"O=C(NO)c1cnc(N2CCN(C(=O)c3ccccc3)CC2)s1 [Example 22, 2-(4-benzoyl-piperazin-1-yl)-thiazole-5-carboxylic acid hydroxamide]",3.5,40
"CC(=O)N1CCN(c2ncc(C(=O)NO)s2)CC1 [Example 21, 2-(4-acetyl-piperazin-1-yl)-thiazole-5-carboxylic acid hydroxamide]",2.75,–
O=C(NO)c1cnc(CN2CCN(S(=O)(=O)c3ccc4ccccc4c3)CC2)s1 [Example 24],6.9,10
"O=C(NO)c1cnc(N2CCCN(S(=O)(=O)c3ccc4ccccc4c3)CC2)s1 [Example 2, 1-(2-naphthylsulfonyl)-4-(5-hydroxyaminocarbonylthiazol-2-yl)-1,4-diazepane]",5.9,10
O=C(/C=C/c1cnc(N2CCN(S(=O)(=O)c3ccc4ccccc4c3)CC2)s1)NO [Example 4],0.045,0.7

# Now from value to compound, other results behind:
IC50 [1] [µM],SMILES,GI50 (MCF7 cells) [µM]
1.63,O=C(/C=C/c1cnc(N2CCN(S(=O)(=O)c3ccc([N+](=O)[O-])cc3)CC2)s1)NO [Example 4h],5
0.44,O=C(/C=C/c1cnc(N2CCN(S(=O)(=O)c3ccccc3)CC2)s1)NO [Example 4b],3
0.87,"O=C(NO)c1cnc(N2CCN(C(=O)CCc3c[nH]c4ccccc34)CC2)s1 [Example 23b, 2-[4-(3-{1H-indol-3-yl}propanoyl)-piperazin-1-yl]-1,3-thiazole-5-carboxylic acid hydroxyamide]",30
11.4,O=C(/C=C/c1cnc(N2CCN(S(=O)(=O)c3ccc(-c4ccccc4)cc3)CC2)s1)NO [Example 4j],1.5
0.4,COc1ccc(S(=O)(=O)N2CCN(c3ncc(/C=C/C(=O)NO)s3)CC2)cc1 [Example 4d],1
14.5,O=C(/C=C/c1cnc(N2CCN(S(=O)(=O)c3ccc(C(F)(F)F)cc3)CC2)s1)NO [Example 4g],3
0.6,"Cc1ccc(S(=O)(=O)NC2C3CN(c4ncc(C(=O)NO)s4)CC32)cc1 (centres unmarked) [Example 5g, 2-(6-{[(4-methylphenyl)sulfonyl]amino}-3-azabicyclo[3.1.0]hex-3-yl)-1,3-thiazole-5-carboxylic acid hydroxyamide]",8
4.7,O=C(/C=C/c1cnc(N2CCN(S(=O)(=O)c3ccc(F)cc3)CC2)s1)NO [Example 4m],2.5
3.24,O=C(/C=C/c1cnc(N2CCN(S(=O)(=O)c3ccc(OC(F)(F)F)cc3)CC2)s1)NO [Example 4e],6
0.67,Cc1ccc(S(=O)(=O)N2CCCN(c3ncc(C(=O)NO)s3)C2)cc1 [Example 5h],3.5
0.55,Cc1ccc(S(=O)(=O)N2CCN(c3ncc(/C=C/C(=O)NO)s3)CC2)cc1 [Example 4f],2
0.16,COc1ccc(S(=O)(=O)N2CCN(c3ncc(/C=C/C(=O)NO)s3)CC2)cc1OC [Example 4c],4
318,CN(C)c1cccc2c(S(=O)(=O)N3CCN(c4ncc(/C=C/C(=O)NO)s4)CC3)cccc12 [Example 4k],4
0.65,O=C(/C=C/c1cnc(N2CCN(S(=O)(=O)c3cccs3)CC2)s1)NO [Example 4i],18
